Measured values as given in patent publication US20250009751A1, “FORMULATIONS OF ANTIVIRAL COMPOUNDS” (Merck Sharp & Dohme LLC, priority 2018, published 2025).

Experiment: pH-dependent solubility of Compound A
Format: physicochemical
Details: particularly between pH 1-4

solubility profile: sharp pH-dependent solubility profile
SMILES: COC(=O)N[C@H](C(=O)N1CCC[C@H]1c1ncc(-c2cc(F)c3c(c2)O[C@@H](c2cnc(C4CC4)s2)n2c-3cc3cc(-c4cnc([C@@H]5CCCN5C(=O)[C@@H](NC(=O)OC)C(C)C)[nH]4)ccc32)[nH]1)C(C)C [Compound A, dimethyl ((2S,2′S)-((2S,2′S)-2,2′-(5,5′-((S)-6-(2-cyclopropylthiazol-5-yl)-1-fluoro-6H-benzo[5,6][1,3]oxazino[3,4-a]indole-3,10-diyl)bis(1H-imidazole-5,2-diyl))bis(pyrrolidine-2,1-diyl))bis(3-methyl-1-oxobutane-2,1-diyl))dicarbamate]
